Data published in PubChem BioAssay AID1671221.

Target: Tyrosine-protein kinase Blk (Homo sapiens) (UniProt P51451)
Assay: inhibition of BLK tyrosine kinase activity – biochemical, Z'-LYTE FRET, direct format, recombinant human, dose response (AID 1671221)
Settings: Z'-LYTE FRET peptide phosphorylation

Chain of Tyrosine-protein kinase Blk (Homo sapiens) (P51451 whole entry, looked up): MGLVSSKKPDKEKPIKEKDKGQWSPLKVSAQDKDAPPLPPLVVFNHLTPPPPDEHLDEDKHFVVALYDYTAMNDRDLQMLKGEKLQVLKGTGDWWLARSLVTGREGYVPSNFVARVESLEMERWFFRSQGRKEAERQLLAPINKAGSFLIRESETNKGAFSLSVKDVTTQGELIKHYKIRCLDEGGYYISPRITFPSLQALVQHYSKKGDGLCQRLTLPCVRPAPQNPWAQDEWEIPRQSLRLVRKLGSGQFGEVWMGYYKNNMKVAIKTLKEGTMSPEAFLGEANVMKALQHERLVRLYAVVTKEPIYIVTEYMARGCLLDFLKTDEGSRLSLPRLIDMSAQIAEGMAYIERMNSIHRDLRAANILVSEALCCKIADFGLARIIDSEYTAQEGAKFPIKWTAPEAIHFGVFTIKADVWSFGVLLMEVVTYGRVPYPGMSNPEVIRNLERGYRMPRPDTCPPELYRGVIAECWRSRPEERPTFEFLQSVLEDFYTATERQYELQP

Compound: COc1cc2ncnc(Nc3cccc(Cl)c3)c2cc1OC
- IC50: 1160 nM
